Several values for one entry are separate records, joined by “and”; a condition that tells them apart may be missing. Identical values can stand only once. These antisense oligonucleotides have a phosphorothioate backbone; sugars and methylation of C are not fully specified.
molecular target: PIK3CD; conditions: ASO
Note: test concentration or dose not given here.

| Sequence | remaining target (mRNA or protein) (fraction of control) |
| --- | --- |
| AATGAGTGTCATCCCGCCCT | 0.4 and 0.14 |
| AATTCCCCAGAAAGTGGCCA | 0.74 and 0.5 |
| ACCAATGTGCTTGGTCCCCA | ≥ 1 and 0.37 |
| ACCCACTTGAAAAGTGGAGA | 0.99 and 0.8 |
| ACTACTGCCTGTTGTCTTTG | ≥ 1 and 0.44 |
| ACTGCCTGTTGTCTTTGGAC | 0.74 and 0.44 |
| AGACCCCTGTGGGCAGCAGG | 0.78 and 0.46 |
| AGCTGCCAGAACTCAGTCTA | 0.53 and 0.48 |
| AGTAGGCACCAGGTGACCGC | 0.77 and 0.67 |
| AGTCCACCCCAGGGGGCATC | ≥ 1 and 0.45 |
| ATGAAGGAGGCGTTTCCGTT | 0.81 and 0.32 |
| CAGCCGAGAGCCAGGTGCAG | ≥ 1 and 0.59 |
| CAGGGGGCATCCTGCGTTGT | 0.85 and ≥ 1 |
| CCACCCCAGGGGGCATCCTG | ≥ 1 and 0.37 |
| CCAGGGCTGGGAGGAGCCAC | 0.91 and 0.69 |
| CCCCAGGGGGCATCCTGCGT | 0.81 and 0.96 |
| CCCCGGTCTTAAGCTGGTCC | 0.31 and 0.42 |

| Sequence | remaining target (mRNA or protein) (fraction of control) |
| --- | --- |
| CCTCCTCTTGGGCCCAGGGC | ≥ 1 and 0.71 |
| CCTCGGGAGGAGAACAGTCT | ≥ 1 and 0.45 |
| CGGCCGCTCGTGCCGAATTC | 0.96 and ≥ 1 |
| CGGCTGCTCCAGGGACCACA | 0.63 and 0.38 |
| CGTTGCTCGTCCTCCAGCTC | 0.47 and 0.27 |
| CTGCGTTGTTACTTCCCAGA | ≥ 1 and 0.41 |
| CTGGGAGGAGCCACTACTGC | 0.99 and 0.6 |
| GATGACAGTTGTCCTCTCTG | 0.84 and 0.46 |
| GCATCCTGCGTTGTTACTTC | 0.89 and 0.35 |
| GCCACTACTGCCTGTTGTCT | 0.59 and 0.3 |
| GCGCAGCTGGCAGGGCTGGG | 0.86 and ≥ 1 |
| GCGGCACGTCCTTGGTGGAC | 0.93 and 0.54 |
| GGAAGCTGAAGTCTAGCAGC | 0.84 and 0.56 |
| GGACGGGCAGGAAGGGCTGC | ≥ 1 and 0.87 |
| GGAGCCACTACTGCCTGTTG | 0.86 and 0.31 |
| GGAGGAGCCACTACTGCCTG | 0.98 and 0.55 |
| GGCAGATTAAAGATGCTTTA | 0.9 and 0.48 |

molecular target: PLA2G4A; conditions: ASO

| Sequence | remaining target (mRNA or protein) (fraction of control) |
| --- | --- |
| ATAGCACTCCTTCAGCCC | ≥ 1 |
| ATCAAGGGATACGGCAGG | 0.51 |
| ATGTGAGCCCACTGTCCA | ≥ 1 |
| CACTCCTTCAGCCCTTCC | ≥ 1 |
| CACTGCCCCAGACACCCA | ≥ 1 |
| CAGAAACGCCCAAAACTC | 0.43 |
| CATTTTAGCCCACTTTTC | ≥ 1 |
| CCAAATAAGTCGGGAGCC | 0.09 |
| CCCCACCTGAACCCAATA | ≥ 1 |
| CCCCTTTGTCACTTTGGT | 0.33 |
| CTCCTTCAGCCCTTCCCG | ≥ 1 |
| CTTGTTCATTTTAGCCCA | ≥ 1 |
| GAAAAGAGGTAAAGGGCA | ≥ 1 |
| GAACCAGAAACGCCCAAA | ≥ 1 |
| GATGATGGTTGGGCAATC | ≥ 1 |
| GATGGTTGGGCAATCTTT | ≥ 1 |
| GCCCAAAACTCTGTTGAA | 0 |
| GGTTGGGCAATCTTTCTC | ≥ 1 |
| GTGAACCAGAAACGCCCA | ≥ 1 |
| GTTCATTTTAGCCCACTT | ≥ 1 |
| TAAATGTGAGCCCACTGT | ≥ 1 |
| TCGGGAGCCATAAAAGTA | ≥ 1 |
| TGAGATTCAAGCCCAGCA | 0.41 |
| TGAGCCCACTGTCCACTA | 0.26 |
| TGCCCCAGACACCCATTA | 0.88 |
| TTGTGAACCAGAAACGCC | 0.08 |
| TTTAGCCCACTTTTCTGC | 0.07 |

molecular target: SMAD1; conditions: ASO

| Sequence | remaining target (mRNA or protein) (fraction of control) |
| --- | --- |
| AAAGATGAACTCCTTTTC | 0.65 |
| AAATGACATGAGGCAGTC | 0.54 |
| AAGGGCTTCCTGGGTCTG | 0.53 |
| ACAGTAGTAGGATGAAAT | 0.41 |
| ACATTCATAATGACAGCA | 0.59 |
| AGCATTCCAGTGGTTTTA | 0.31 |
| AGTGAGGAAACGGGTGGC | 0.28 |
| AGTGGCGTTGAGTGGCAT | 0.75 |
| ATGCAAAAGGACAGCAGA | 0.57 |
| ATTGATCTGGTCGCGCTG | 0.69 |
| CAGATGAAATAGGATTAT | 0.55 |
| CAGCCTGCCATCCAGAGA | 0.46 |
| CATAAGCAACCGCCTGAA | 0.57 |
| CCAGTCAGCACCGGGTTG | 0.8 |
| CCCACACGATTGTTGAGC | 0.35 |
| CCGCCCGCCTGCTTTCTC | 0.12 |
| CCTCAGCTGCCAATACCC | 0.47 |
| CCTCCACTCCTCAGCTGC | 0.5 |
| CTGAAGATCGGGCCAGCG | 0.52 |
| GAGCCGCTCGGCCTCTCC | 0.23 |

| Sequence | remaining target (mRNA or protein) (fraction of control) |
| --- | --- |
| GCAGCTCAAGGCCTTTTC | 0.58 |
| GCTGGACTTGTAAAGGAA | 0.57 |
| GTAGGTGCTGCTGCTGCT | 0.49 |
| GTCCAGAAGAGTAGAAAT | 0.44 |
| TAACATTGGAGAGCAGCC | 0.29 |
| TCCATGGTTCACAGACTG | 0.2 |
| TCCTTCTGCTTGGAACCA | 0.3 |
| TCGCCCTGTTTCCACCCA | 0.1 |
| TGAAACCATCCACCAACA | 0.3 |
| TGACTCATCCATCCTTCA | 0.19 |
| TGCTACTGTCACTAAGGC | 0.12 |
| TGCTAGTAACATCCTGGC | 0.25 |
| TGGATATGGTGAAATAAA | 0.83 |
| TGTTTGTGTCCATCGGCT | 0.47 |
| TTCACCAAAGCATCAACA | 0.18 |
| TTGGTCACAGAGGTCAAG | 0.15 |
| TTGTTTAAATTTCTGAAT | 0.5 |
| TTTACAGAGAAGTCTCTT | ≥ 1 |
| TTTGTCCTAAGTTACGGA | 0.64 |

molecular target: SMAD3; conditions: ASO

| Sequence | remaining target (mRNA or protein) (fraction of control) |
| --- | --- |
| ACAGGCGGCAGTAGATGA | ≥ 1 |
| ACATTCGGGTCAACTGGT | 0.48 |
| AGAACTGGTGTCTCTACT | 0.51 |
| AGACCAAATGCCATCCCA | 0.18 |
| CCAAGTTATTATGTGCTG | ≥ 1 |
| CCATTTCTCCTCCTGCCC | 0.62 |
| CCCCTACCATACTTGATG | 0.38 |
| CCCCTCCGATGTAGTAGA | 0.54 |
| CCTCCCCATCCCAAGTCT | 0.59 |
| CCTGTTGACATTGGAGAG | 0.72 |
| CGATGTAGTAGAGCCGCA | 0.42 |
| CTCCCCAGCCTTTGACGA | 0.54 |
| CTCTCTGGTAGTGGTAGG | 0.8 |
| CTCTGGGTTTGCTCGTGT | 0.56 |
| CTTCCGATGTGTCTCCGT | 0.39 |
| GAACACGCACCTCCCAAT | 0.4 |
| GAACTCCTGGTTGTTGAA | ≥ 1 |
| GAGGCACTCTGCGAAGAC | 0.49 |
| GCCCTGGTTGACCGACTG | 0.83 |
| GCCTTCTCGCACCATTTC | 0.92 |

| Sequence | remaining target (mRNA or protein) (fraction of control) |
| --- | --- |
| GCGAGGCGTGGAATGTCT | 0.54 |
| GCGCTGGTTACAGTTGGG | ≥ 1 |
| GCGTGGCACCAACACAGG | ≥ 1 |
| GGAGGGCGTGCGGGCGGC | ≥ 1 |
| GGCTGTAGTCGTCCAGTG | 0.65 |
| GGGAAGTTAGTGTTTTCG | ≥ 1 |
| GGGTCGGTGAAGCCATCC | ≥ 1 |
| GGTAGGGATTCACGCAGA | 0.92 |
| GTGCGGGCGGCGAGGAGC | 0.86 |
| TCTGGTGGTCACTGGTTT | 0.64 |
| TCTTCTTCCTTGACAACA | 0.92 |
| TCTTGAGTTTCTTGACCA | ≥ 1 |
| TGCAGGTCCAAGTTATTA | 0.81 |
| TGCATCGTGCGGGCTCTT | 0.43 |
| TGCCCGTTCTGCTCGCCC | 0.63 |
| TGCTCGCCCTTCTTCCAG | 0.61 |
| TGGGTTGAGTAGAGTTCC | 0.53 |
| TTAAGCCACCAGAGCAGA | ≥ 1 |
| TTCTTCCAGCCCAGCAGG | ≥ 1 |

Reference: the OligoGym collection
